We go through five compounds from patent US6544986B2, “Pyridones and their use as modulators of serine hydrolase enzymes” (Dalhousie University, priority 2000, dated 2003).

“Also recorded” adds a separate entry of the source.

The target in one assay is human AChE (Homo sapiens, UniProt P22303). The assay is described as follows: Esterase activity assay (modified Ellman), AChE with acetylthiocholine. Format: biochemical. The settings on record: substrate acetylthiocholine; for Ki: read-out: Esterase Ki AChE(h). As to the method: (§1) The esterase activity of BuChE or AChE was determined by a modification of the method described by Ellman et al. (32), using a buffered 5,5′-dithiobis (2-nitrobenzoic acid) (DTNB) solution. Stock DTNB solution consisted of 10 mM DTNB with 18 mM sodium bicarbonate in 0.1 M phosphate buffer, pH 7.0. Working DTNB solution was prepared by mixing 3.6 mL of 10 mM stock DTNB solution with 96.4 mL of 0.1 M phosphate buffer at pH 8.0. The assay was carried out by mixing 2.7.mL of buffered DTNB working solution (pH 8.0), 0.1 mL of BuChE or AChE in 0.005% aqueous gelatin (1 U/mL), and 0.1 mL of 50% aqueous acetonitrile, or a solution of a 2-pyridone compound of the invention in the same solvent, in a quartz cuvette of 1 cm path-length. Absorbance of this solution was calibrated to zero and the reaction was commenced by adding 0.1 mL of aqueous acetylthiocholine (AcSCh) or butyrylthiocholine (BuSCh) solutions of varying concentration (between 1.9 mM and 15 mM). The final volume was always 3.0 mL. The reactions were carried out at room temperature. The rate of change of absorbance (ΔA/min), reflecting the rate of hydrolysis of BuSCh or AcSCh, was recorded every 5 seconds for a total of 1 minute using a Milton-Roy uv-visible spectrophotometer set at λ=412 nm.
Chain of human AChE (P22303 32-614): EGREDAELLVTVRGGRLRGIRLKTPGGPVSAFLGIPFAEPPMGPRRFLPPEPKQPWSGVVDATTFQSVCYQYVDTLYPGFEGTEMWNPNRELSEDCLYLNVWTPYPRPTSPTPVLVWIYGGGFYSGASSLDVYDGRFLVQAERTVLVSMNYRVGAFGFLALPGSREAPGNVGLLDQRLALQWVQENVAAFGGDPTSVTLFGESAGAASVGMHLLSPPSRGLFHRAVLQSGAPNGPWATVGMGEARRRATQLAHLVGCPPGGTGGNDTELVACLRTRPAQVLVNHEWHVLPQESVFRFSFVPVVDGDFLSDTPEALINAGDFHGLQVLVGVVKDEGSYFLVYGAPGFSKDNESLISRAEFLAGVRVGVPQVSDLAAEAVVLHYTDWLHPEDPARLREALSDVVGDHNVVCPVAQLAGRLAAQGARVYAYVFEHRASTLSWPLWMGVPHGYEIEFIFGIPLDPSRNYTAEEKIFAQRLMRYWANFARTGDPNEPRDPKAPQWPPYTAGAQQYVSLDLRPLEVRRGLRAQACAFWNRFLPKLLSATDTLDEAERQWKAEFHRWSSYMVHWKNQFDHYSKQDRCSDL
(§2) The slopes of Lineweaver-Burk plots versus Log of inhibitor concentration were used to determine the inhibitor constant Ki.
(§3) The effect of increasing amount of exemplified 2-pyridone compounds (Examples 1 to 10) on the activity of human BuChE and AChE is shown in FIGS. 1 to 10.
(§4) The compounds of Examples 1 to 9 inhibited BuChE and AChE to varying degrees. Graphs of the slopes obtained from Lineweaver-Burk double reciprocal graphs versus log of the concentration of each compound gave the inhibition constant Ki for each compound.

Another assay addresses human BuChE (Homo sapiens, UniProt P06276). The assay is described as follows: Esterase activity assay (modified Ellman), BuChE with butyrylthiocholine. Format: biochemical. To be noted: for Ki: substrate butyrylthiocholine, pH 8.0, room temperature, from slopes of Lineweaver-Burk plots vs log concentration, read-out: Esterase Ki BuChE(h). On the procedure: as §1, §2, §3, §4

For another assay, the system named is human trypsin. The assay is described as follows: Trypsin activity assay (BAPNA hydrolysis, HPLC of PNA), trypsin. The settings on record: substrate BAPNA, Tris buffer pH 8.0, 40° C.; FIG. 12. The assay is classed as biochemical. On the procedure:
(§5) The effect of 2-pyridone compounds on trypsin-like enzymatic activity associated with BuChE and that of human trypsin was determined using Nα-benzoyl-DL-arginine-p-nitroanilide (BAPNA) as the substrate. The same procedure was used to study the effect of the compounds on BuChE-trypsin mixture. Reactions were performed in 0.06 M Tris buffer at pH 8.0. […] The incubations were carried out in 1.5 mL Eppendorf tubes by mixing 0.85 mL of 0.06 M Tris buffer (pH 8.0), 0.07 mL of up to 10 mM BAPNA, 0.03 mL of 50% aqueous acetonitrile, or a solution of 2-pyridone compound (typically, a 5 mM working solution) in the same solvent, and 0.05 mL of the enzyme solution (0.5-1.5 U of trypsin in 1 mM hydrochloric acid, or up to 5.0 U of BuChE in 0.005% aqueous gelatin). The final volume of the assay mixture was always 1.0 mL. The enzyme reaction mixture was incubated at 40° C. for 15-45 hours. The use of 1.5 U of trypsin gave an amount of p-nitroaniline (PNA) produced upon cleavage of BAPNA by trypsin after 22 hours of incubation that was similar to the amount of product formed by trypsin-like activity associated with 5 U of BuChE under the same conditions.
(§6) The concentration of the PNA was determined by means of high performance liquid chromatography (HPLC). […] The rate of formation of PNA was calculated by using the following formula: […]

For assay [1], the system named is trypsin-like enzymatic activity associated with BuChE. The assay is described as follows: Trypsin activity assay (BAPNA hydrolysis, HPLC of PNA), trypsin-like activity associated with BuChE. To be noted: substrate BAPNA, Tris buffer pH 8.0, 40° C.; FIG. 11. Format: biochemical, human. As to the method:
as §5, §6

Setting [2] is: pH 8.0, room temperature, from slopes of Lineweaver-Burk plots vs log concentration.

As a reminder, the Ki is the equilibrium dissociation constant of an inhibitor or competing ligand from its target.

Chain of human BuChE (P06276 29-602): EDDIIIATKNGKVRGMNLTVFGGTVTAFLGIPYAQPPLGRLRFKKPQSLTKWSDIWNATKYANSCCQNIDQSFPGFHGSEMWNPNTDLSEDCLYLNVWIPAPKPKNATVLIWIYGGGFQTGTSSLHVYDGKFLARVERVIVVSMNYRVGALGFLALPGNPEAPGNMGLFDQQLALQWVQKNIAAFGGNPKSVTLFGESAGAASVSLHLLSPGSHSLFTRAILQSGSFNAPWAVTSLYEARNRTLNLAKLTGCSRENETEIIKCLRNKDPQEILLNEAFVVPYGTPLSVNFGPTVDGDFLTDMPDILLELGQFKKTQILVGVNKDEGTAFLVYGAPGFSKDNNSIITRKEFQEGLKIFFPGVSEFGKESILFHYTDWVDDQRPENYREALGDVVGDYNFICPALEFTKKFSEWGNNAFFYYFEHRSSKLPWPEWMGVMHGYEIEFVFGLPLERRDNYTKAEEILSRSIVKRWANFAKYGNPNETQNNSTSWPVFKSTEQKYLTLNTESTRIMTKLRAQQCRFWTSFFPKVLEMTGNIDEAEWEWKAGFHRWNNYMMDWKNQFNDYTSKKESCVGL

On to `O=C(NC1CCCCC1)c1ccc(=O)[nH]c1` [Example 7, 5-(N-Cyclohexyl)aminocarbonyl-2-pyridone], for which the “inhibition of the activity of AChE on acetylthiocholine (in words)” value against human AChE is listed as “no inhibition”. In addition, the “Esterase Ki AChE(h)” value at human AChE (setting [2]) was “Insignificant inhibition”. At human BuChE, the Ki was 137 µM.
With `CCN(CC)C(=O)c1ccc(=O)[nH]c1` [Example 3, 5-(N,N-Diethyl)aminocarbonyl-2-pyridone], the results for the Ki on human AChE (setting [2]) and on human BuChE were 7600 µM and 1300 µM, respectively.
As to `O=C(c1ccc(=O)[nH]c1)N(Cc1ccccc1)Cc1ccccc1` [Example 1, 5-(N,N-Dibenzyl)aminocarbonyl-2-pyridone], the results for the Ki on human AChE (setting [2]) and on human BuChE were 260 µM and 37.5 µM, respectively. Besides, the “effect on enzymatic activity of trypsin itself” value with human trypsin is on record as “do not have direct effect on trypsin alone”. For the same compound, in assay [1], the “effect on trypsin-like activity associated with BuChE (rate of hydrolysis of BAPNA)” value is recorded as “increased the rate of hydrolysis; also recorded: considerably enhanced”.
As to `CCN(CC)Cc1ccc(=O)[nH]c1` [Example 4, 5-(N,N-Diethyl)aminomethyl-2-pyridone], the Ki at human AChE (setting [2]) is 4770 µM; on human BuChE, 3890 µM. For the same compound, at human BuChE (BuChE versus AChE), the “inhibitory activity towards each cholinesterase studied (comparison)” value was “equal inhibitory activity”.
Take `CC(C)N(C(=O)c1ccc(=O)[nH]c1)C(C)C` [Example 2, 5-(N,N-Diisopropyl)aminocarbonyl-2-pyridone]: the values for the Ki at human AChE (setting [2]) and on human BuChE were 131 µM and 1430 µM, respectively.
